Source: patent publication US9499495B2, “Quinazolines and azaquinazolines as dual inhibitors of RAS/RAF/MEK/ERK and PI3K/AKT/PTEN/mTOR pathways” (Asana Biosciences, LLC, priority 2013, dated 2016)
pIC50: −log10 of the molar value.

How the values were obtained:
PI3Kα = biological target: T1, PI3Kα (Homo sapiens, UniProt P42336); assay: PI3 Kinase alpha TR-FRET assay; assay type: biochemical
T1 construct: made in house; host or cells: SF9 cells
Method in brief: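 Purified Sf9-expressed p110/p85α (5 ng) was pre-incubated with compound and PIP2 at rt, then ATP was added (PIP2 and ATP both 40 μM) for a 30 min reaction. PIP3 was detected by TR-FRET displacement of biotin-PIP3, and IC50 was taken from dose-response curves of the 665/615 nm emission ratio.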

mTOR kinase = biological target: T2, mTOR kinase (Homo sapiens, UniProt P42345); assay: mTOR kinase TR-FRET assay; assay type: biochemical
T2 construct: purchased Millipore, US
Method in brief: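 TR-FRET with ULight-p70 S6K (Thr 389) peptide (50 nM) and 20 μM ATP in 50 mM HEPES pH 7.5, 1 mM EGTA, 3 mM MnCl2; compound pre-incubated with enzyme before substrate addition, reaction at rt, EDTA-stopped. Eu anti-phospho antibody read 665/615 nm; IC50 from sigmoidal dose-response fit.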

B-RAFV600E = biological target: T3, B-RAFV600E (Homo sapiens, UniProt P15056, V600E); assay: B-RAFV600E radiometric assay; assay type: biochemical; conditions: read-out: Kinase assay B-Raf
T3 construct: purchased Millipore, USA 14-557
Method in brief: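 B-RAFV600E was preincubated 45 min at rt with compound in 1% DMSO. MEK-K97M (0.5 μg), 5 μM final cold ATP and [γ-32P]ATP were then added for 2 h at rt. Phosphorylated MEK was captured on P81 paper and scintillation-counted; IC50 came from a sigmoidal dose-response fit.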

A375 cells = assay: XTT assay for cell viability, A375 cells; assay type: cell-based; conditions: Homo sapiens, A-375, 72 h
Method in brief: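 GI50 derived by sigmoidal dose-response fitting of proliferation normalised to DMSO control (100%). Readout: A450 after 2-3 h with XTT (1 mg/ml)/PMS (25 μM), following 72 h compound treatment at 37° C., 5% CO2 of cells plated at 1000-2000 per well the previous day.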

T1 sequence (P42336 whole entry, species assumed): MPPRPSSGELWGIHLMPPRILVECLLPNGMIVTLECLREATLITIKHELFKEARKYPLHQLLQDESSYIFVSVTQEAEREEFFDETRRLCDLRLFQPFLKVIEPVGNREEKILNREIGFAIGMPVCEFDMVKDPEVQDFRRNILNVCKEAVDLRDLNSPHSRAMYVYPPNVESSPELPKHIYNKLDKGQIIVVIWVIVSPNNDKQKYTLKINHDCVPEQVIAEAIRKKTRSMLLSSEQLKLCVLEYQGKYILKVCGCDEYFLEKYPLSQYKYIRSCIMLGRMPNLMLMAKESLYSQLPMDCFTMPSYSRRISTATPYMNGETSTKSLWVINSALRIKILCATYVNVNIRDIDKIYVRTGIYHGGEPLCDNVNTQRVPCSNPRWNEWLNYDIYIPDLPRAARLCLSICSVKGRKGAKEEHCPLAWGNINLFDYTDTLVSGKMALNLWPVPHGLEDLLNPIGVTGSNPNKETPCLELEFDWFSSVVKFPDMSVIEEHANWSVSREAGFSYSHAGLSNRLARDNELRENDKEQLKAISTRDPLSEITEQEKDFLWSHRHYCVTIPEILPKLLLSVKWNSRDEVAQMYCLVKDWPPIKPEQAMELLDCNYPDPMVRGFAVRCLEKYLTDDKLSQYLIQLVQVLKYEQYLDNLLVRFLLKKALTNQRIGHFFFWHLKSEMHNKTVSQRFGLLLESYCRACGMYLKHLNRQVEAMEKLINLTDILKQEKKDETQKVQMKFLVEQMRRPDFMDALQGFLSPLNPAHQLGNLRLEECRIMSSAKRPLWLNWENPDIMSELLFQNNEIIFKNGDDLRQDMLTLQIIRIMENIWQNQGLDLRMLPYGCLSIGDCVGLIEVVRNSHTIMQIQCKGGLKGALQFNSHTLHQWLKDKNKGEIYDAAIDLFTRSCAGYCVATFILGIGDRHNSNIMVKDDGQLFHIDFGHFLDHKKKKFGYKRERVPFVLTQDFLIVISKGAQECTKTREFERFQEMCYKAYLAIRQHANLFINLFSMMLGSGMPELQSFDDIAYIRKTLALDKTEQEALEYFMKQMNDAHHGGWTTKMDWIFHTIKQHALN
T1 sequence (P27986 whole entry partner, species assumed): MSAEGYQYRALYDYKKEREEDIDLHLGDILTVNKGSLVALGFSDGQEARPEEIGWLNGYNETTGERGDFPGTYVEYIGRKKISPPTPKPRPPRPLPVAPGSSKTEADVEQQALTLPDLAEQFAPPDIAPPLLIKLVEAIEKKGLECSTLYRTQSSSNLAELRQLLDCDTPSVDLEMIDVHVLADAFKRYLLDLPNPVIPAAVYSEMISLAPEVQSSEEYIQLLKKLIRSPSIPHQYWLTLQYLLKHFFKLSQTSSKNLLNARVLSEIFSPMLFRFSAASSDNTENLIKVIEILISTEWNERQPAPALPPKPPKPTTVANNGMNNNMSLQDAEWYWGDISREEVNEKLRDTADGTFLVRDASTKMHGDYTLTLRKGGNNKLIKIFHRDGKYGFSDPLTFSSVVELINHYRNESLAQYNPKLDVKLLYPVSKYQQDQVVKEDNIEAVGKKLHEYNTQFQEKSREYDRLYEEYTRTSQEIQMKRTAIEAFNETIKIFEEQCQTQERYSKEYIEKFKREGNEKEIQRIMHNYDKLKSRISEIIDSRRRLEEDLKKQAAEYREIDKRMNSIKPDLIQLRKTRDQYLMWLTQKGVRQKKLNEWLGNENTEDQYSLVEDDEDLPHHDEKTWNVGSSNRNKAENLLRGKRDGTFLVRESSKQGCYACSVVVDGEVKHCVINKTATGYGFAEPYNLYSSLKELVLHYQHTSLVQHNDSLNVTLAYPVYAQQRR
T3 sequence (P15056 416-766 V600E limits assumed): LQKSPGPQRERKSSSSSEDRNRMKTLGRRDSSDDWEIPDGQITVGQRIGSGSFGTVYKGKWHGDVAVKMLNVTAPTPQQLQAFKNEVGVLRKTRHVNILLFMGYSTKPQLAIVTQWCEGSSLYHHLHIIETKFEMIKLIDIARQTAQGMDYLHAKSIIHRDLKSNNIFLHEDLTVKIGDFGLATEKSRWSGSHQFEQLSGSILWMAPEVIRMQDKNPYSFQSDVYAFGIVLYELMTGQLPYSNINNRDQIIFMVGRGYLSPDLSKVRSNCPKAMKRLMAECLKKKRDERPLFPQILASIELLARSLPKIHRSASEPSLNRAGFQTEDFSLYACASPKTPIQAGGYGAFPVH
T2 sequence (P42345 1362-2549 limits assumed): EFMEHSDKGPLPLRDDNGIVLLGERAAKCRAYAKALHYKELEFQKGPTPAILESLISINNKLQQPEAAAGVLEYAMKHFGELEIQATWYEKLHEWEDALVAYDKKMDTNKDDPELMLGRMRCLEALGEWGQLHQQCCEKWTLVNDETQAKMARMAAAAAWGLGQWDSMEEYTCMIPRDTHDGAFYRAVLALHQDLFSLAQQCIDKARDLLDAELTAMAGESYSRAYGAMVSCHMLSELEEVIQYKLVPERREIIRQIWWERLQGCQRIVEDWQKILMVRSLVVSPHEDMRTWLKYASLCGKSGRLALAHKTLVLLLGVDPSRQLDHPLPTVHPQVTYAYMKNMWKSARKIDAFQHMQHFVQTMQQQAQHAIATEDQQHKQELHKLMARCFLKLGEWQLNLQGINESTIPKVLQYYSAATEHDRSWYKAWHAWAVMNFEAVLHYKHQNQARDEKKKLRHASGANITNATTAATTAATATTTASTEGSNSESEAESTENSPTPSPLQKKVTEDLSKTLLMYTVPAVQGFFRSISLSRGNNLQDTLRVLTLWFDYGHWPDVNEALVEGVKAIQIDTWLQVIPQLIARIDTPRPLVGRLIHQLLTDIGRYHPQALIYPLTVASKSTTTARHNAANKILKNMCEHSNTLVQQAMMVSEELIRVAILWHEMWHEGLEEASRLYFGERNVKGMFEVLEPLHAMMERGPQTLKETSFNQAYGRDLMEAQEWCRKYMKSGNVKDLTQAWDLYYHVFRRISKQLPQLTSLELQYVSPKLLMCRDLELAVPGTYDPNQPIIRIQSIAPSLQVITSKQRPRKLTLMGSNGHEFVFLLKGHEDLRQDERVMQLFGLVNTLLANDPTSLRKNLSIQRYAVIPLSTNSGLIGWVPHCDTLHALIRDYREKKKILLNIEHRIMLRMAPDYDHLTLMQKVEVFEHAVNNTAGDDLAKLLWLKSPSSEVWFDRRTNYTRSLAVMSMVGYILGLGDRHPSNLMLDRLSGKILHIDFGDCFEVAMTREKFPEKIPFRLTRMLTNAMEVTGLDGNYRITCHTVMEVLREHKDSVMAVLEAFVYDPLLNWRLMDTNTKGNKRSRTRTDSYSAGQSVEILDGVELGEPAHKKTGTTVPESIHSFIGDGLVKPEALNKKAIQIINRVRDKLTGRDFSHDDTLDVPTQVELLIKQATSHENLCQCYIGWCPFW

Row | pIC50 (PI3Kα) | pIC50 (mTOR kinase) | pIC50 (B-RAFV600E) | pIC50 (A375 cells) | SMILES
1 | 7.00 to 9.00 | 6.00 to 7.00 | 7.00 to 9.00 | 6.00 to 7.00 | Cc1cc(N)ncc1-c1nc(N2CCOCC2)c2nc(-c3cccc(NS(=O)(=O)CCCF)c3F)ccc2n1 [Example 101, N-(3-(2-(6-amino-4-methylpyrtdin-3-yl)-4-morpholinopyrldo[3,2-d]pyrimidin-6-yl)-2-fluorophenyl)-3-fluoropropane-1-sulfonamide]
2 | 6.00 to 7.00 | 6.00 to 7.00 | 7.00 to 9.00 | 7.00 to 9.00 | Cc1cc(-c2cccc(NS(=O)(=O)CCCF)c2F)cc2c(N3CCOCC3)nc(-c3cnc(N)nc3)nc12 [Example 116, N-(3-(2-(2-aminopyrimidin-5-yl)-8-methyl-4-morpholinoquinazolin-6-yl)-2-fluorophenyl)-3-fluoropropane-1-sulfonamide]
3 | 7.00 to 9.00 | 7.00 to 9.00 | 7.00 to 9.00 | 6.00 to 7.00 | Nc1cc(F)c(-c2nc(N3CCOCC3)c3nc(-c4cccc(NS(=O)(=O)CCCF)c4F)ccc3n2)cn1 [Example 102, N-(3-(2-(6-amino-4-fluoropyridin-3-yl)-4-morpholinopyrido[3,2-d]pyrimidin-6-yl)-2-fluorophenyl)-3-fluoropropane-1-sulfonamide]
4 | 6.00 to 7.00 | 7.00 to 9.00 | 7.00 to 9.00 | 7.00 to 9.00 | COc1cc(-c2cccc(NS(=O)(=O)CCCF)c2F)cc2c(N3CCOC[C@H]3C)nc(-c3cnc(N)nc3)nc12 [Example 43, (R)-N-(3-(2-(2-aminopyrimidin-5-yl)-8-methoxy-4-(3-methylmorpholino)quinazolin-6-yl)-2-fluorophenyl)-3-fluoropropane-1-sulfonamide]
5 | 6.00 to 7.00 | 7.00 to 9.00 | 7.00 to 9.00 | 6.00 to 7.00 | O=S(=O)(CCCF)Nc1cccc(-c2ccc3nc(-c4ccc(NCCO)nc4)nc(N4CCOCC4)c3n2)c1F [Example 99, 3-fluoro-N-(2-fluoro-3-(2-(6-((2-hydroxyethyl)amino)pyridin-3-yl)-4-morpholinopyrido[3,2-d]pyrimidin-6-yl)phenyl)propane-1-sulfonamide]
6 | 7.00 to 9.00 | 6.00 to 7.00 | 7.00 to 9.00 | 7.00 to 9.00 | Nc1ccc(-c2nc(N3CCOCC3)c3nc(-c4cccc(NS(=O)(=O)c5cc(F)ccc5F)c4F)ccc3n2)cn1 [Example 92, N-(3-(2-(6-aminopyridin-3-yl)-4-morpholinopyrido[3,2-d]pyrimidin-6-yl)-2-fluorophenyl)-2,5-difluorobenzenesulfonamide]
